Data: paper PMC5479826, “Determination of Crucial Immunogenic Epitopes in Major Peanut Allergy Protein, Ara h2, via Novel Nanoallergen Platform” (Scientific Reports, 2017)

Tested on: patient sera IgEs
Assay: ELISA binding assay with patient sera
Design: species or system human
Protocol: A high binding 96 well plate was incubated with anti-Human IgE in Carbonate-Bicarbonate buffer (Sigma) at a concentration of 3 nM for 16 hours at 4 °C. Plate was washed with washing buffer (PBS with 0.5% tween 20) and then blocked with blocking buffer (5% BSA in PBS with 0.1% tween 20) for 1 hr at room temperature. Plate was washed with automatic plate washer (AquaMax 2000), then varying concentrations of either Ara h2-Biotin (Indoors Biotechnologies) or FITC-peptide 2 conjugate in blocking buffer for 1 hour. Plate was washed again and then either streptavidin-HRP (1:5 000 dilution) or anti-FITC HRP IgG (1:5000 dilution) was added in blocking buffer. After another washing step, Amplex Red substrate was added (Invitrogen) and plate fluorescence was read at 5 minute intervals according to manufacturer’s instructions.

EC50 (Fig. S-2, patient serum 1 on anti-IgE coated plate, Ara h 2-Biotin or FITC-tagged epitope 2 peptide): 465 ± 200 nM
Substance: ERDPYSP^OHSQDPYSP^OHS [Epitope 2]
Binding to patient sera IgEs in ELISA (detectability) (serum 1, result in words): detectable binding
